SMILES strings stand for the structures.

This assay concerns A549 cells. Description: Targeted cell killing efficacy, viability of A549 cells. The assay is classed as cell-based, human. The following applies: incubated 2 hours, series of concentrations. The protocol: Cell viability of the constructed nanocarriers was assessed by CellTiter-Glo 2.0 assay. […] Then, 100 μL of the samples was added into a white 96-well plate. Subsequently, 100 μL CellTiter-Glo 2.0 reagent was dispensed into each well. The luminescence was recorded 10 minutes after addition of CellTiter-Glo 2.0 reagent by a BioTek microplate reader. Cell viability was calculated as a percentage of mammalian cells in the absence of nanocarriers.

Turning to `COc1cccc2c1C(=O)c1c(O)c3c(c(O)c1C2=O)C[C@@](O)(C(=O)CO)C[C@@H]3O[C@H]1C[C@H](N)[C@H](O)[C@H](C)O1` [free DOX, doxorubicin], the “toxicity to A549 cells” value is on record as “dose-dependent toxicity”.

(Values after patent US12208164B2, “Modular metal-organic polyhedra superassembly compositions” (UNM Rainforest Innovations, priority 2019, dated 2025).)
